Assay results published in patent publication US20190119348A1, “PARATHYROID HORMONE RECEPTOR 1 ANTAGONIST AND INVERSE AGONIST POLYPEPTIDES AND METHODS OF THEIR USE” (The General Hospital Corporation, priority 2016, published 2019).
Where a SMILES comes first, the peptide text is derived from it. [ ]: non-standard residue; d: D form. Nle = CCCC[C@H](N)C(=O)O

Experiments:
PTHR1 = target: T1, PTHR1 (Homo sapiens, UniProt Q03431); assay: Antagonism of PTH(1-34)-induced cAMP response (GloSensor) in GP-2.3 cells; format: cell-based
T1 construct: expressed in transfected cells; host or cells: GP-2.3 (HEK-293 stably transfected with hPTHR1 and GloSensor)
T1 sequence (Q03431 27-593): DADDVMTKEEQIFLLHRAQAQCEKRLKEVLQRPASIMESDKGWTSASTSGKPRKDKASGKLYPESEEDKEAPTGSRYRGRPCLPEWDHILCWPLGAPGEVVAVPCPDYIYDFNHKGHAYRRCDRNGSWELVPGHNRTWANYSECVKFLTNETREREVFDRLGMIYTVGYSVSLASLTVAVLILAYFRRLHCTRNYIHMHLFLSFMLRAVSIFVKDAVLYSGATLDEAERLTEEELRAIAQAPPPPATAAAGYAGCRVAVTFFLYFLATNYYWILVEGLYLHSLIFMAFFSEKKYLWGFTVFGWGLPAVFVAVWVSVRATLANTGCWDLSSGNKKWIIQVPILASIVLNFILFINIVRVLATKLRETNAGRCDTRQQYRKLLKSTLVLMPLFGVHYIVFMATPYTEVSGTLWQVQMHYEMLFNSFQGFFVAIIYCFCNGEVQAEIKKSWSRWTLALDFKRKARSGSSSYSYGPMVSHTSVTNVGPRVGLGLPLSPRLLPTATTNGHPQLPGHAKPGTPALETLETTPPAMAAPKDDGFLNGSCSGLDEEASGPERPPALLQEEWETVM
Procedure: cAMP signaling was assessed in the HEK293-derived or SaOS2-derived cell lines stably expressing the luciferase-based GloSensor™ cAMP reporter (Hattersley et al., Paper presented at: Novel Signaling Mechanisms and Bone Cell Biology 2014; Binkowski et al., Methods in molecular biology. 756:263-271). HEK-293 cells were further transfected to stably express the hPTHR1, hPTHR1-H223R, or hPTHR1-T410P. The cells were seeded into 96-well white plates and were assayed 24 to 48 hours post-confluency. Assays were performed at room temperature in CO2-independent culture media (Life Technologies, Corp., Carlsbad, Calif.) containing 0.1% BSA (CIDB). The cells were pre-loaded with luciferin (0.5 mM in CIDB) for 15 minutes, then PTH peptides were added at varying concentrations. cAMP-dependent luminescence was measured at two-minute intervals using a PerkinElmer Envision plate reader. The time at which maximum luminescence (cps) observed with agonist alone, typically at 10-20 minutes after agonist addition, was used to obtain data from wells containing antagonist with or without agonist, to thus generate antagonist ligand dose-response curves. The resulting cps values were then plotted against ligand concentration using GraphPad Prism 7.0 software and a four-parameter logistics curve fitting equation, which yielded parameters of inhibitory potency (pIC50).
Pharmacological properties of the ligands were assessed in cells expressing the PTHR1 and the GloSensor™ cAMP reporter. The assays used GP-2.3 cells, derived from HEK293 cells by stable transfection with the hPTHR1 and GloSensor™, as well as SGS-72 cells, which are derived from the human osteosarcoma cell line, Saos-2, in which is endogenously expressed the hPTHR1, by stable transfection with GloSensor™. Binding of representative polypeptides to the PTHR1 was assessed in GP-2.3 cells by radioligand competition methods (FIGS. 1A and 1B, Table 3).
[…] concentration of antagonist that inhibited the maximum response to PTH(1-34)-induced in the absence of antagonist (at ˜40 minutes) is reported in units of -log M (pIC50), and the corresponding nanomolar value is shown below each pIC50 value. Data are means of the number of experiments indicated (n). The PTH(1-34)-induced maximum luminescence was ˜80,000 cps and the basal was ˜1,000 cps. TMR indicates Lys13 modified at epsilon amino function with TMR, P vs. inhibition by dW12,Y34-bPTH(7-34).

endogenous hPTHR1 = target: T2, endogenous hPTHR1 (Homo sapiens, UniProt Q03431); assay: Antagonism of PTH(1-34)- and PTHrP(1-36)-induced cAMP response (GloSensor) in SGS-72 cells; format: cell-based; details: PTH(1-34) 0.3 nM
T2 construct: Saos-2, in which is endogenously expressed the hPTHR1; endogenous in cells
T2 sequence (Q03431 27-593): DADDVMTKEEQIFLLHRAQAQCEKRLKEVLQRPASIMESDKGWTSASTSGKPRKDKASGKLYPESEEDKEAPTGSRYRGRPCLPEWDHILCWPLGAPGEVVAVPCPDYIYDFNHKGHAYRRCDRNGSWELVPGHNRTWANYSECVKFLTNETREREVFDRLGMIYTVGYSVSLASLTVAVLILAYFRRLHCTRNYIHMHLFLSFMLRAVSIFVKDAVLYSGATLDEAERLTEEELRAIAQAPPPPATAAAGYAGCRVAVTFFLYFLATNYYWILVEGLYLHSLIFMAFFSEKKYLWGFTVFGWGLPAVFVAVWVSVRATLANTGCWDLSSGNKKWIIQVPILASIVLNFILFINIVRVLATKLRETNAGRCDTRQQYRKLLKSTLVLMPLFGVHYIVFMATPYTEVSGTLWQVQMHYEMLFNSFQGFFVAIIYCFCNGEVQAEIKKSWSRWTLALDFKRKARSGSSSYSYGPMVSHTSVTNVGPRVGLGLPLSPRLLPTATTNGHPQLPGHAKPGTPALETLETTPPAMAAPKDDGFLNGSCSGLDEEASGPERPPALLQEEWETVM
Procedure: cAMP signaling was assessed in the HEK293-derived or SaOS2-derived cell lines stably expressing the luciferase-based GloSensorTM cAMP reporter ([…] al., Paper presented at: Novel Signaling Mechanisms and Bone Cell Biology 2014; Binkowski et al., Methods in molecular biology. 756:263-271). HEK-293 cells were further transfected to stably express the hPTHR1, hPTHR1-H223R, or hPTHR1-T410P. The cells were seeded into 96-well white plates and were assayed 24 to 48 hours post-confluency. Assays were performed at room temperature in CO2-independent culture media (Life Technologies, Corp., Carlsbad, Calif.) containing 0.1% BSA (CIDB). The cells were pre-loaded with luciferin (0.5 mM in CIDB) for 15 minutes, then PTH peptides were added at varying concentrations. cAMP-dependent luminescence was measured at two-minute intervals using a PerkinElmer Envision plate reader. The time at which maximum luminescence (cps) observed with agonist alone, typically at 10-20 minutes after agonist addition, was used to obtain data from wells containing antagonist with or without agonist, to thus generate antagonist ligand dose-response curves. The resulting cps values were then plotted against ligand concentration using GraphPad Prism 7.0 software and a four-parameter logistics curve fitting equation, which yielded parameters of inhibitory potency (pIC50). Pharmacological properties of the ligands were assessed in cells expressing the PTHR1 and the GloSensorTM cAMP reporter. The assays used GP-2.3 cells, derived from HEK293 cells by stable transfection with the hPTHR1 and GloSensorTM, as well as SGS-72 cells, which are derived from the human osteosarcoma cell line, Saos-2, in which is endogenously expressed the hPTHR1, by stable transfection with GloSensorTM. Binding of representative polypeptides to the PTHR1 was assessed in GP-2.3 cells by radioligand competition methods (FIGS. 1A and 1B, Table 3). […] In Table 5, antagonist assays were performed in SGS-72 cells (SaOS2 cells with stable GloSensorTM cAMP reporter) at room temperature. […] The mean (±sem) concentration of antagonist that inhibited the maximum agonist-induced response observed in the absence of antagonist (at 40 minutes) is reported in units of -log M (pIC50), and the corresponding nanomolar value is shown below each pIC50 value. Data are means of the number of seven experiments. The PTH(1-34)-induced maximum luminescence was 500,000 cps and the basal was 5,000 cps. TMR indicates Lys13 modified at epsilon amino function with TMR. The data are illustrated in FIG. 7A. […] Date are means (±SEM) of the number of separate experiments indicated by n.

Row | SMILES | PTH(1-34)-induced maximum luminescence (PTHR1; basal ~1,000 cps) | PTH(1-34)-induced maximum luminescence (endogenous hPTHR1; basal ~5,000 cps) | IC50 (PTHR1; inhibition of PTH(1-34)-induced maximum response, read-out: corresponding nanomolar value of pIC50 (Table 4) (converted)) [nM] | IC50 (endogenous hPTHR1; IC50 PTH(1-34) (Table 6, nanomolar value), antagonist pre-treatment 15 minutes) [nM]
1 | CC[C@H](C)[C@H](NC(=O)[C@H](CCC(=O)O)NC(=O)[C@H](CO)NC(=O)[C@@H](NC(=O)[C@@H](N)CO)C(C)C)C(=O)N[C@@H](CCC(N)=O)C(=O)N[C@@H](CC(C)C)C(=O)N[C@@H](CCSC)C(=O)N[C@@H](Cc1c[nH]cn1)C(=O)N[C@@H](CC(N)=O)C(=O)N[C@@H](CC(C)C)C(=O)NCC(=O)N[C@@H](CCCCN)C(=O)N[C@@H](Cc1c[nH]cn1)C(=O)N[C@@H](CC(C)C)C(=O)N[C@@H](CC(N)=O)C(=O)N[C@@H](CO)C(=O)N[C@@H](CCSC)C(=O)N[C@@H](CCC(=O)O)C(=O)N[C@@H](CCCNC(=N)N)C(=O)N[C@H](C(=O)N[C@@H](CCC(=O)O)C(=O)N[C@@H](Cc1c[nH]c2ccccc12)C(=O)N[C@@H](CC(C)C)C(=O)N[C@@H](CCCNC(=N)N)C(=O)N[C@@H](CCCCN)C(=O)N[C@@H](CCCCN)C(=O)N[C@@H](CC(C)C)C(=O)N[C@@H](CCC(N)=O)C(=O)N[C@@H](CC(=O)O)C(=O)N[C@H](C(=O)N[C@@H](Cc1c[nH]cn1)C(=O)N[C@@H](CC(N)=O)C(=O)N[C@@H](Cc1ccccc1)C(N)=O)C(C)C)C(C)C [compound 1923, PTH(1-34), reference compound] | ~80,000 cps | ~500,000 cps | – | –
2 | CCCC[C@H](NC(=O)[C@H](CC(C)C)NC(=O)[C@H](CCC(N)=O)NC(=O)[C@@H](N)[C@@H](C)CC)C(=O)N[C@@H](Cc1c[nH]cn1)C(=O)N[C@@H](CCC(N)=O)C(=O)N[C@@H](CCCNC(=N)N)C(=O)N[C@H](Cc1c[nH]c2ccccc12)C(=O)N[C@@H](CCCCN)C(=O)N[C@@H](Cc1c[nH]c2ccccc12)C(=O)N[C@H](C(=O)N[C@@H](CCC(N)=O)C(=O)N[C@@H](CC(=O)O)C(=O)N[C@@H](C)C(=O)N[C@@H](CCCNC(=N)N)C(=O)N[C@@H](CCCNC(=N)N)C(=O)N[C@@H](CCCNC(=N)N)C(=O)N[C@@H](C)C(=O)N[C@@H](Cc1c[nH]c2ccccc12)C(=O)N[C@@H](CC(C)C)C(=O)N[C@@H](Cc1c[nH]cn1)C(=O)N[C@@H](CCCCN)C(=O)N[C@@H](CC(C)C)C(=O)N[C@H](C(=O)N[C@@H](C)C(=O)N[C@@H](CCC(=O)O)C(=O)N[C@H](C(=O)N[C@@H](Cc1c[nH]cn1)C(=O)N[C@H](C(=O)N[C@@H](C)C(=O)N[C@@H](CCC(=O)O)C(=O)N[C@H](C(=O)N[C@@H](CS)C(N)=O)[C@@H](C)CC)[C@@H](C)O)[C@@H](C)CC)[C@@H](C)CC)[C@@H](C)CC [compound 1974, Nle8, dW12, W23, C37-LA-PTH(5-37)] (H-IQL[Nle]HQR[dW]KWIQDARRRAWLHKLIAEIHTAEIC-NH2; N-terminus assumed) | – | – | 224 | 4.39
